Reference: patent publication US9107900B2, “Use of dronedarone for the preparation of a medicament for use in the prevention of cardiovascular hospitalization or of morality” (SANOFI, priority 2008, dated 2015)
Counter-ions that a name gives are not always drawn.

Tested on: patients having a history of atrial fibrillation or atrial flutter
Assay: prospective, multinational, multicentre, double-blind clinical study versus placebo: cardiovascular hospitalizations and mortality
Type: in vivo, human
Experimental: The patients had to have a history of atrial fibrillation or flutter and/or could be in normal sinus rhythm or in atrial fibrillation or flutter at inclusion.
The patient recruitment was carried out by taking into account the following inclusion criteria:
• 1) One of the following risk factors had to be present: • age equal to or greater than 70 years, • hypertension (taking antihypertensives of at least two different classes), • diabetes, • history of cerebral stroke (transient ischemic event or completed cerebral stroke) or of systemic embolism, • left atrial diameter greater than or equal to 50 mm measured by echocardiography, • left ventricular ejection fraction less than 40%, measured by two-dimensional echography; or • age equal to or above 70, or even above 75, possibly combined with at least one of the risk factors below: • hypertension (taking antihypertensives of at least two different classes), • diabetes, • history of cerebral stroke (transient ischemic event or completed cerebral stroke) or of systemic embolism, • left atrial diameter greater than or equal to 50 mm measured by echocardiography, • left ventricular ejection fraction less than 40%, measured by two-dimensional echography; • 2) availability of an electrocardiogram carried out during the past 6 months in order to document the presence or the history of atrial fibrillation or flutter; • 3) availability of an electrocardiogram carried out during the past 6 months in order to document the presence or absence of normal sinus rhythm. […] Criteria Related to a Cardiac Condition: • Patients in permanent atrial fibrillation • Patients in unstable hemodynamic condition such as acute pulmonary edema within 12 hours prior to start of study medication; cardiogenic shock; treatment with IV pressor agents; patients on respirator; congestive heart failure of stage NYHA IV within the last 4 weeks; uncorrected, hemodynamically significant primary obstructive valvular disease; hemodynamically significant obstructive cardomyopathy; a cardiac operation or revascularization procedure within 4 weeks preceding randomization • Planned major non-cardiac or cardiac surgery or procedures including surgery for valvular heart disease, coronary artery bypass graft (CABG), percutaneous coronary intervention (PCI), or on urgent cardiac transplantation list • Acute myocarditis or constrictive pericarditis • Bradycardia<50 bpm and/or PR-interval>0.28 sec on the last 12-lead ECG. • Significant sinus node disease (documented pause of 3 seconds or more) or 2nd or 3rd degree atrioventricular block (AV-block) unless treated with a pacemaker. Criteria Related to Concomitant Medications:
Need of a concomitant medication that is prohibited in this trial, including the requirement for Vaughan Williams Class I and III anti-arrhythmic drugs, that would preclude the use of study drug during the planned study period, i.e. patients have to stop others antiarrhythmics such as Vaughan Williams Class I and III anti-arrhythmic drugs, for example amiodarone, flecamide, propafenone, quinidine, disopyramide, dofetilide, solatol.
• Plasma potassium<3.5 mmol/l (as anti-arrhythmic drugs can be arrhythmogenic in patients with hypokalemia, this must be corrected prior to randomization. • A calculated GFR at baseline<10 ml/min using the Cockroft Gault formula (GFR [ml/min]=(140−AGE [years]*WEIGHT [kilograms]*CONSTANT/CREATININE [μmol/L], where CONSTANT is […]).
Furthermore, the concomitant use of grapefruit juice and all potent inhibitors of CYP3A4 such as ketoconazole were prohibited.
Treatment was initiated using tablets containing either the placebo or an amount of dronedarone hydrochloride corresponding to 400 mg of dronedarone at a rate of twice a day with the morning and evening meal and more specifically at a rate of one tablet in the morning during or shortly after breakfast and one tablet in the evening during or shortly after dinner. […]

[1] = NYHA class III and LVEF below 0.35, stable, 400 mg BID, N = 24
[2] = NYHA class III congestive heart failure, stable hemodynamic condition, vs placebo
[3] = NYHA class III congestive heart failure, stable, vs placebo
[4] = all patients, treated group 2301 of 4628
[5] = all patients, treated group 2301 of 4628, 400 mg twice a day
[6] = congestive heart failure, LVEF below 0.35, stable, vs placebo
[7] = patients with a structural heart disease
[8] = patients with a structural heart disease, vs placebo
[9] = patients with coronary heart disease (668 treated patients)
[10] = patients with coronary heart disease, vs placebo
[11] = patients with permanent atrial fibrillation/flutter, vs placebo

CCCCc1oc2ccc(NS(C)(=O)=O)cc2c1C(=O)c1ccc(OCCCN(CCCC)CCCC)cc1 [dronedarone hydrochloride, 2-n-Butyl-3-[4-(3-di-n-butylaminopropoxy)benzoyl]-5-methylsulphonamidobenzofuran]
HR (95% CI): cardiovascular hospitalization and death (Left atrium diameter >=50 mm (N 955), vs placebo): 0.77 (0.63, 0.94)
decrease of cardiovascular hospitalization and death (Left atrium diameter >=50 mm, vs placebo): 23%
Endpoint's composition: Cardiovascular death [1]: 2
Endpoint's composition: Cardiovascular hospitalization [1]: 10
Endpoint's composition: Death from any cause [1]: 3
Endpoint's composition: Non cardiovascular death [1]: 1
number of events: death (NYHA class III congestive heart failure, stable (91 treated patients)): 12 events
number of events: cardiovascular hospitalization and death (NYHA class III congestive heart failure, stable hemodynamic condition (91 treated patients)): 40 events
decrease of cardiovascular hospitalization or death [2]: 44%
relative risk: cardiovascular hospitalization or death [2]: 0.56
decrease of death [3]: 34%
relative risk: death [3]: 0.66
HR (95% CI): cardiovascular hospitalization and death (Prior cerebrovascular accident or systemic embolism (N 616), vs placebo): 0.80 (0.62, 1.02)
decrease of cardiovascular hospitalization and death (Prior cerebrovascular accident or systemic embolism, vs placebo): 20%
number of arrhythmic deaths (deaths from cardiac arrhythmia) [4]: 26 arrhythmic deaths
number of cardiovascular deaths [4]: 65 cardiovascular deaths
number of deaths: mortality from any cause [4]: 116 deaths
number of events: cardiovascular hospitalizations [4]: 675 events
number of events: cardiovascular hospitalizations and sudden death [4]: 684 events
number of events: cardiovascular hospitalizations for atrial fibrillation or supraventricular arrhythmia [4]: 296 events
number of events: cardiovascular hospitalizations for transient ischemic event or stroke [4]: 43 events
number of events: hospitalizations associated with class IV congestive heart failure [4]: 42 events
number of events: hospitalizations associated with congestive heart failure [4]: 112 events
number of sudden deaths [4]: 14 sudden deaths
number of events: cardiovascular hospitalizations and cardiovascular mortality [5]: 701 events
number of events: cardiovascular hospitalizations and mortality (principal judgement criterion) [5]: 734 events
number of events: death (congestive heart failure, LVEF below 0.35, stable (92 treated patients)): 10 events
decrease of cardiovascular hospitalization or death [6]: 32%
decrease of death [6]: 45%
relative risk: cardiovascular hospitalization or death [6]: 0.68
relative risk: death [6]: 0.55
number of events: cardiovascular hospitalization and death (congestive heart failure, left ventricular ejection fraction below 0.35, stable hemodynamic condition (92 treated patients)): 39 events
reduction in the risk of sudden death (patients not taking diuretics, vs placebo): 34%
number of events: cardiovascular hospitalizations and mortality (patients who developed permanent atrial fibrillation/flutter): 29 events
number of events: cardiovascular death [7]: 48 events
number of events: cardiovascular hospitalization [7]: 452 events
number of events: cardiovascular hospitalization or death [7]: 486 events
number of events: death [7]: 77 events
decrease of cardiovascular deaths [8]: 33%
decrease of cardiovascular hospitalization [8]: 24%
decrease of cardiovascular hospitalization or death [8]: 24%
decrease of death [8]: 24%
relative risk: cardiovascular death [8]: 0.67
relative risk: cardiovascular hospitalization [8]: 0.76
relative risk: cardiovascular hospitalization or death [8]: 0.76
relative risk: death [8]: 0.76
number of events: cardiovascular death [9]: 26 events
number of events: cardiovascular hospitalization [9]: 233 events
number of events: cardiovascular hospitalization or death [9]: 252 events
number of events: death [9]: 39 events
decrease of cardiovascular death [10]: 40%
decrease of cardiovascular hospitalization [10]: 26%
decrease of cardiovascular hospitalization or death [10]: 27%
decrease of death [10]: 36%
relative risk: cardiovascular death [10]: 0.602
relative risk: cardiovascular hospitalization [10]: 0.740
relative risk: cardiovascular hospitalization or death [10]: 0.733
relative risk: death [10]: 0.643
reduction in cardiovascular hospitalizations and mortality [11]: 33%
relative risk: cardiovascular hospitalizations and mortality [11]: 0.67
patients who developed permanent atrial fibrillation/flutter (treated group 2301 of 4628, p<0.001 vs placebo (294)): 178 patients
decrease of cardiovascular hospitalization associated with class IV congestive heart failure (vs placebo, all patients): 22%
decrease of cardiovascular hospitalization associated with congestive heart failure (vs placebo, all patients): 14.5%
reduction in cardiovascular hospitalizations (vs placebo, all patients): 25.5%
reduction in cardiovascular hospitalizations and cardiovascular deaths (vs placebo, all patients): 25.5%
reduction in cardiovascular hospitalizations and sudden deaths (vs placebo, all patients): 25.5%
reduction in cardiovascular hospitalizations for atrial fibrillation (vs placebo, all patients): 38.4%
reduction in cardiovascular hospitalizations for transient ischemic event or stroke (vs placebo, all patients): 34%
reduction in cardiovascular mortality (vs placebo, all patients): 30.2%
reduction in sudden death (vs placebo, all patients): 59.5%
reduction in the risk of a first cardiovascular hospitalization not due to a supraventricular arrhythmia (vs placebo, all patients): 14.5%
reduction of arrhythmic death (vs placebo, all patients): 45%
reduction of death (any cause) (vs placebo, all patients): 15.6%
relative risk: arrhythmic death (vs placebo, all patients): 0.55
relative risk: cardiovascular hospitalizations (vs placebo, all patients): 0.745
relative risk: cardiovascular hospitalizations and cardiovascular deaths (vs placebo, all patients): 0.745
relative risk: cardiovascular hospitalizations and sudden deaths (vs placebo, all patients): 0.743
relative risk: cardiovascular hospitalizations for atrial fibrillation or supraventricular arrhythmia (vs placebo, all patients): 0.616
relative risk: cardiovascular hospitalizations for transient ischemic event or stroke (vs placebo, all patients): 0.66
relative risk: cardiovascular mortality (vs placebo, all patients): 0.698
relative risk: hospitalizations associated with class IV congestive heart failure (vs placebo, all patients): 0.78
relative risk: hospitalizations associated with congestive heart failure (vs placebo, all patients): 0.855
relative risk: mortality from any cause (vs placebo, all patients): 0.844
relative risk: sudden death (vs placebo, all patients): 0.405
relative risk: cardiovascular hospitalizations and deaths (vs placebo, all patients, 400 mg twice a day): 0.758
reduction in cardiovascular hospitalizations and deaths (vs placebo, all patients, x=1-relative risk): 24.2%
